Laboratory results taken from ChEMBL document CHEMBL4393707, “Synthesis and evaluation of new quinazolin-4(3H)-one derivatives as potent antibacterial agents against multidrug resistant Staphylococcus aureus and Mycobacterium tuberculosis” (Eur J Med Chem, 2019).
Converted amounts (≈) assume the structure as drawn.

How the values were obtained:
[1] = system: Klebsiella pneumoniae; assay: Antibacterial activity against Klebsiella pneumoniae ATCC BAA-1705 incubated for 16 to 18 hrs by broth microdilution assay; assay type: functional
[2] = system: Acinetobacter baumannii; assay: Antibacterial activity against Acinetobacter baumannii BAA1605 incubated for 16 to 18 hrs by broth microdilution assay; assay type: functional
[3] = system: Escherichia coli; assay: Antibacterial activity against Escherichia coli ATCC 25922 incubated for 16 to 18 hrs by broth microdilution assay; assay type: functional
[4] = system: Staphylococcus aureus; assay: Antibacterial activity against Staphylococcus aureus ATCC 29213 incubated for 16 to 18 hrs by broth microdilution assay; assay type: functional
[5] = system: Pseudomonas aeruginosa; assay: Antibacterial activity against Pseudomonas aeruginosa ATCC 27853 incubated for 16 to 18 hrs by broth microdilution assay; assay type: functional
[6] = system: Mycobacterium tuberculosis; assay: Antitubercular activity against Mycobacterium tuberculosis H37Rv after 7 days by resazurin dye based assay; assay type: functional; conditions: 168 h
[7] = Cytotoxicity against African green monkey Vero cells assessed as reduction in cell viability after 72 hrs by MTT assay; assay type: cell-based; conditions: chlorocebus sabaeus
[8] = Selectivity index, ratio of CC50 for African green monkey Vero cells to MIC for Staphylococcus aureus ATCC 29213; assay type: toxicity; conditions: read-out: Selectivity Index

SMILES	MIC [1] [µg/mL]	MIC [2] [µg/mL]	MIC [3] [µg/mL]	MIC [4] [µg/mL]	MIC [5] [µg/mL]	MIC [6] [µg/mL]	CC50 at 72 h [7] [µg/mL]	selectivity ratio [8]
COc1ccc(-c2cn(-c3ccc4c(=O)n(-c5ccccc5)c(/C=C/c5ccc(C#N)cc5)nc4c3)nn2)cc1	> 64	> 64	> 64	> 64	> 64	> 64		
N#Cc1ccc(/C=C/c2nc3ccccc3c(=O)n2CCc2c[nH]c3ccccc23)cc1	> 64	> 64	> 64	> 64	> 64	> 64		
Cc1nc2ccc(OCc3cn(-c4ccc(Cl)cc4)nn3)cc2c(=O)n1Cc1ccccc1	> 64	> 64	> 64	> 64	> 64	> 64		
N#Cc1ccc(/C=C/c2nc3ccc(OCc4cn(-c5cccc(Cl)c5)nn4)cc3c(=O)n2Cc2ccccc2)cc1	> 64	> 64	> 64	> 64	> 64	> 64		
Cc1nc2ccc(OCc3cn(-c4cccc(Cl)c4)nn3)cc2c(=O)n1Cc1ccccc1	> 64	> 64	> 64	> 64	> 64	> 64		
Cc1nc2cc(-n3cc(COc4ccccc4)nn3)ccc2c(=O)n1-c1ccccc1	> 64	> 64	> 64	> 64	> 64	> 64		
C#CCOc1ccc2nc(/C=C/c3ccc(C#N)cc3)n(CC(=O)OC)c(=O)c2c1	> 64	> 64	> 64	> 64	> 64	> 64		
Cc1cc(C)cc(OCc2cn(-c3ccc4c(=O)n(-c5cccc(Cl)c5)c(C)nc4c3)nn2)c1	> 64	> 64	> 64	> 64	> 64	> 64		
N#Cc1ccc(/C=C/c2nc3ncccc3c(=O)n2Cc2ccc(F)cc2)cc1	> 64	> 64	> 64	> 64	> 64	> 64		
Cc1cc(-n2cc(CNc3ccc4c(=O)n(-c5ccccc5)c(C)nc4c3)nn2)cc(C)c1C	> 64	> 64	> 64	> 64	> 64	> 64		
COc1cc(-n2cc(COc3ccc4nc(C)n(-c5ccccc5)c(=O)c4c3)nn2)cc(OC)c1OC	> 64	> 64	> 64	> 64	> 64	> 64		
C#Cc1cccc(-n2c(/C=C/c3ccc(C#N)cc3)nc3cccc(F)c3c2=O)c1	> 64	> 64	> 64	0.25 (≈ 0.639 µM)	> 64	> 64	> 10	> 40
